Assays:
[1] = target: Protein phosphatase 3 catalytic subunit alpha (Homo sapiens, UniProt Q08209); design: species or system Escherichia coli;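 note: inhibition of calcineurin (PP2B) enzyme activity, measured with DiFMUP as the substrate; in other assays of this panel Not Active means under 50% inhibition at 10 µM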
[2] = target: T1, Receptor-type tyrosine-protein phosphatase C (Homo sapiens, UniProt P08575); design: species or system Escherichia coli;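 note: inhibition of CD45 enzyme activity measured using DiFMUP as substrate; in other assays of this panel Not Active means under 50% inhibition at 10 µM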
T1 sequence (P08575 whole entry): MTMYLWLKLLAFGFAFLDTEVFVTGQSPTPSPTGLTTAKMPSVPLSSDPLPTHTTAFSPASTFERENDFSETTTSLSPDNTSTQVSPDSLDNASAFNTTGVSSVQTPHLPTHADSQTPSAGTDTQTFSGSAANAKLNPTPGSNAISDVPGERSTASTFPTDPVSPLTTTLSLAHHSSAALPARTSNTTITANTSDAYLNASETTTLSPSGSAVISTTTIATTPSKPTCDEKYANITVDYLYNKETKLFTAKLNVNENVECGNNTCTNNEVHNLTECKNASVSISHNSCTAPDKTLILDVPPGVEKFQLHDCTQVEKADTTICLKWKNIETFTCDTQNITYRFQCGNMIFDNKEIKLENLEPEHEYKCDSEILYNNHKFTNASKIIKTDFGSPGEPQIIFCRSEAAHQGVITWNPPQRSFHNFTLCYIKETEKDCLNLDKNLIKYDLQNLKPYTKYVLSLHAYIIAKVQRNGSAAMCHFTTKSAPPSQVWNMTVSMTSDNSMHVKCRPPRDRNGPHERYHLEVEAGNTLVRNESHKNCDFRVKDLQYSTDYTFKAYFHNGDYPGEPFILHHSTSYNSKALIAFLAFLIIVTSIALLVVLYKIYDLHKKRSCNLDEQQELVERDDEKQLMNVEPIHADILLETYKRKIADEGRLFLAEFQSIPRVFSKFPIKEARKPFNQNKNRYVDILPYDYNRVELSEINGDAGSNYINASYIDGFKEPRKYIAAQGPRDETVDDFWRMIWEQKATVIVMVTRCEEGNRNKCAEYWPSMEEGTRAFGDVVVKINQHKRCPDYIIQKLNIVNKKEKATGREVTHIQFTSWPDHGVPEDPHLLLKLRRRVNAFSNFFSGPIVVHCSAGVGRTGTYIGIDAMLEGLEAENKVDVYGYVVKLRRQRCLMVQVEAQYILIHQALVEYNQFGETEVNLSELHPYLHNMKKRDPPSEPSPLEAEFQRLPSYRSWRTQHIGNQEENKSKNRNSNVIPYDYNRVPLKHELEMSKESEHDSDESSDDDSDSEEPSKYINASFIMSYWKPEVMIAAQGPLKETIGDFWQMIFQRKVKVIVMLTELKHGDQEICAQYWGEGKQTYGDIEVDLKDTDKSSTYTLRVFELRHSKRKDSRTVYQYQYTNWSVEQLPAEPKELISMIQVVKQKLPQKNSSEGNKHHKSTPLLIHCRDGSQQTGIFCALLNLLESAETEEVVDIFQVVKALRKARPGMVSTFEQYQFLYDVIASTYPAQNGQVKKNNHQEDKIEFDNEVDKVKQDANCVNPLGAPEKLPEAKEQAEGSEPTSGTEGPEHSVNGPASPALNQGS

[3] = DRUGMATRIX: Purinergic P2X radioligand binding (ligand: [3H] alpha, beta-Methylene-ATP); assay type: cell membranes, Oryctolagus cuniculus, New Zealand albino, Urinary bladder, Membrane; settings: Not Active = under 50% inhibition at 10 µM
[4] = target: Tyrosine-protein kinase Lck (Homo sapiens, UniProt P06239); assay: DRUGMATRIX: Protein Tyrosine Kinase, LCK enzyme inhibition (substrate: Poly(Glu:Tyr)); assay type: cell-based, Insect cells; settings: Not Active = under 50% inhibition at 10 µM
[5] = target: Estrogen receptor beta (Homo sapiens, UniProt Q92731); settings: sf9; note: in other assays of this panel Not Active means under 50% inhibition at 10 µM
[6] = target: T2, Type-2 angiotensin II receptor (Homo sapiens, UniProt P50052); assay: biochemical; assay type: cell-based, CHO-K1; settings: cho-k1; note: in other assays of this panel Not Active means under 50% inhibition at 10 µM
T2 sequence (P50052 whole entry): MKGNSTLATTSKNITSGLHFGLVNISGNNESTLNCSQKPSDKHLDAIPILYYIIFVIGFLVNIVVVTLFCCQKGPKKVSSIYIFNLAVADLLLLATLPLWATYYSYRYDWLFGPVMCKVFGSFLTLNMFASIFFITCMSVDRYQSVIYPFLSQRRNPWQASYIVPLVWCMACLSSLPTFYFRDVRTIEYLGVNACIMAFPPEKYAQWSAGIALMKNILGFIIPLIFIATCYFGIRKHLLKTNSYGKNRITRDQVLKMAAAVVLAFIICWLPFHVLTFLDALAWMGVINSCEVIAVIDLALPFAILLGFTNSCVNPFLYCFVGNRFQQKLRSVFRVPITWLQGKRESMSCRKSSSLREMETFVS

Tyrosine-protein kinase Lck, sequence (P06239 whole entry): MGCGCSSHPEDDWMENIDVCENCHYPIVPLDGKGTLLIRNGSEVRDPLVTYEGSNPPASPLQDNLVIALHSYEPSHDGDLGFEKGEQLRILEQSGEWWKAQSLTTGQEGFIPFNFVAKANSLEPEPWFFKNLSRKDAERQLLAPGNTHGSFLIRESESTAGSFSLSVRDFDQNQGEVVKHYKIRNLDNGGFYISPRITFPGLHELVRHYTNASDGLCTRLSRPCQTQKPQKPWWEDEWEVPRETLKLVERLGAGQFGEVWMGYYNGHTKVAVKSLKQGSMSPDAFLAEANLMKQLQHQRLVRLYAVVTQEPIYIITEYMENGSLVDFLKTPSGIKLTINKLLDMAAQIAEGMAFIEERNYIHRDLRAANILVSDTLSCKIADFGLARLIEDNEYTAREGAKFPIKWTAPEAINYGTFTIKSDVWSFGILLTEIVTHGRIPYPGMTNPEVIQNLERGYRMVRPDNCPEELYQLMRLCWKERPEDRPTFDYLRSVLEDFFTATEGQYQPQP
Estrogen receptor beta, sequence (Q92731 whole entry): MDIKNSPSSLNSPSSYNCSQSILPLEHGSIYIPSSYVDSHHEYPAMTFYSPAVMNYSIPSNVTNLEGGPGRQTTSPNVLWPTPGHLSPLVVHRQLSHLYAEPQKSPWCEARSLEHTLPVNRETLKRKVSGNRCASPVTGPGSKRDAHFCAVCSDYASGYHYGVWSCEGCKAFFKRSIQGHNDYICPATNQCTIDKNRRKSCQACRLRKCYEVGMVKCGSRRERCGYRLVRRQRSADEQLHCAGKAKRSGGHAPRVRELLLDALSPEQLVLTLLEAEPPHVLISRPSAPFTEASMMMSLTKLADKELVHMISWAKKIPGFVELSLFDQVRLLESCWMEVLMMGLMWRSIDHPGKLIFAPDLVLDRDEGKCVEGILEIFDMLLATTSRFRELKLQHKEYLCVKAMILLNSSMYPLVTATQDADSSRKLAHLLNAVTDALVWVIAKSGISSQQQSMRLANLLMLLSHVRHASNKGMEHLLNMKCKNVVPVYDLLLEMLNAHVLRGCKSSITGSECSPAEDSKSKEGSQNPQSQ

Structure (SMILES)	IC50 [1]	IC50 [2]	IC50 [3]	Ki [3]	IC50 ([4]; insect cells)	IC50 [5]	IC50 [6]	Ki [2]	IC50 ([4]; read-out: IC50) [µM]
O=C(O)c1cc(-c2ccc(F)cc2F)ccc1O [DIFLUNISAL]	Not Active	Not Active	Not Active	Not Active	Not Active	Not Active	Not Active	–	–
CCn1cc(C(=O)O)c(=O)c2cc(F)c(N3CCNC(C)C3)c(F)c21 (stereo unspecified) [LOMEFLOXACIN]	Not Active	Not Active	Not Active	Not Active	Not Active	–	Not Active	–	–
CN(C)C(=O)Oc1cccc([N+](C)(C)C)c1.[Br-] [NEOSTIGMINE BROMIDE]	Not Active	Not Active	Not Active	Not Active	Not Active	–	Not Active	–	–
CN1CCCC(CN2c3ccccc3Sc3ccccc32)C1 (stereo unspecified) [MEPAZINE]	Not Active	Not Active	Not Active	Not Active	Not Active	Not Active	Not Active	–	–
ClC(Cl)(Cl)Cl [CARBON TETRACHLORIDE]	Not Active	Not Active	Not Active	Not Active	Not Active	Not Active	Not Active	–	–
CCN(CC)CCCC(C)Nc1c2ccc(Cl)cc2nc2ccc(OC)cc12 (stereo unspecified) [QUINACRINE]	Not Active	Not Active	Not Active	Not Active	Not Active	Not Active	Not Active	–	–
CC[C@H]1[C@@H]2C[C@H]3[C@@H]4N(C)c5ccccc5[C@]45C[C@@H]([C@@H]2[C@H]5O)N3[C@@H]1O [AJMALINE]	Not Active	Not Active	Not Active	Not Active	Not Active	Not Active	Not Active	–	–
C[C@H]1[C@H](NC(=O)/C(=N\OC(C)(C)C(=O)O)c2csc(N)n2)C(=O)N1S(=O)(=O)O [AZTREONAM]	Not Active	Not Active	Not Active	Not Active	Not Active	Not Active	Not Active	–	–
CC(C)c1c(C(=O)Nc2ccccc2)c(-c2ccccc2)c(-c2ccc(F)cc2)n1CC[C@@H](O)C[C@@H](O)CC(=O)O [ATORVASTATIN]	Not Active	Not Active	Not Active	Not Active	Not Active	–	Not Active	–	–
CCN(C(C)=O)c1cccc(-c2ccnc3c(C#N)cnn23)c1 [ZALEPLON]	Not Active	Not Active	Not Active	Not Active	Not Active	–	Not Active	–	–
CC(C)NCC(O)c1ccccc1Cl (stereo unspecified) [CLORPRENALINE]	Not Active	Not Active	Not Active	Not Active	Not Active	–	Not Active	–	–
COc1ccccc1N	Not Active	Not Active	Not Active	Not Active	Not Active	–	Not Active	–	–
C[S+](C)[O-] [DIMETHYL SULFOXIDE]	Not Active	–	Not Active	Not Active	Not Active	–	Not Active	Not Active	–
N=C(N)c1ccc(OCCCCCOc2ccc(C(=N)N)cc2)cc1 [PENTAMIDINE]	Not Active	Not Active	Not Active	Not Active	Not Active	–	Not Active	–	–
CN1C(=O)CN=C(c2ccccc2)c2cc([N+](=O)[O-])ccc21 [NIMETAZEPAM]	Not Active	Not Active	Not Active	Not Active	Not Active	–	Not Active	–	–
O=c1c(-c2ccc(O)cc2)coc2cc(O)cc(O)c12 [GENISTEIN]	Not Active	Not Active	Not Active	Not Active	Not Active	–	Not Active	–	–
C[C@]12C=CC(=O)C=C1CC[C@H]1[C@@H]3C[C@@H](O)[C@](O)(C(=O)CO)[C@@]3(C)C[C@H](O)[C@@]12F [TRIAMCINOLONE]	Not Active	Not Active	Not Active	Not Active	Not Active	–	Not Active	–	–
CC(O)(P(=O)(O)O)P(=O)(O)O [ETIDRONIC ACID]	Not Active	Not Active	Not Active	Not Active	Not Active	–	Not Active	–	–
CCOC(=O)c1ncn2c1CN(C)C(=O)c1cc(F)ccc1-2 [FLUMAZENIL]	Not Active	Not Active	Not Active	Not Active	Not Active	–	Not Active	–	–
NNCCc1ccccc1 [PHENELZINE]	Not Active	Not Active	Not Active	Not Active	Not Active	–	Not Active	–	–
COc1ccc2c(c1OC)C(=O)O[C@@H]2[C@H]1c2c(cc3c(c2OC)OCO3)CCN1C [NOSCAPINE]	Not Active	Not Active	Not Active	Not Active	Not Active	–	Not Active	–	–
Cc1c(O)cccc1C(=O)N[C@@H](CSc1ccccc1)[C@H](O)CN1C[C@H]2CCCC[C@H]2C[C@H]1C(=O)NC(C)(C)C	Not Active	Not Active	Not Active	Not Active	–	–	Not Active	–	79.2
C[C@H]1COc2c(N3CCN(C)CC3)c(F)cc3c(=O)c(C(=O)O)cn1c23.C[C@H]1COc2c(N3CCN(C)CC3)c(F)cc3c(=O)c(C(=O)O)cn1c23.O [LEVOFLOXACIN]	Not Active	Not Active	Not Active	Not Active	Not Active	–	Not Active	–	–
C[N+](C)(C)C[C@H](O)CC(=O)[O-] [LEVOCARNITINE]	Not Active	Not Active	Not Active	Not Active	Not Active	–	Not Active	–	–
O=C(O)P(=O)(O)O [FOSCARNET]	Not Active	Not Active	Not Active	Not Active	Not Active	–	Not Active	–	–
CCCNC(C)C(=O)Nc1ccccc1C (stereo unspecified) [PRILOCAINE]	Not Active	Not Active	Not Active	Not Active	Not Active	–	Not Active	–	–
CN(C)C(=N)NC(=N)N [METFORMIN]	Not Active	Not Active	Not Active	Not Active	Not Active	–	Not Active	–	–
Cn1c(=O)c2c(ncn2C)n(C)c1=O [CAFFEINE]	Not Active	Not Active	Not Active	Not Active	Not Active	–	Not Active	–	–
COc1cc(OC)c(C(=O)CCCN2CCCC2)c(OC)c1 [BUFLOMEDIL]	Not Active	Not Active	Not Active	Not Active	Not Active	–	Not Active	–	–
NC12CC3CC(CC(C3)C1)C2 [AMANTADINE]	Not Active	Not Active	Not Active	Not Active	Not Active	–	Not Active	–	–

— ChEMBL document CHEMBL1909046, “DrugMatrix in vitro pharmacology data”
